Assay results published in patent US12692274B2, “Tetrahydroisoquinoline derivatives for the treatment of red blood disorders and inflammatory diseases” (Sanofi, priority 2020, dated 2026).
Where “and” joins values, the source holds several entries; their conditions need not be identical. Equal values may be shown once.

Columns and labels:
[1] = test system: NQO1 activation in BEAS-2B cells; test: BEAS-2B cellular MTT assay of NQO1 activation, 0.3% HSA; assay type: cell-based
Protocol: (§1) The growth rate of the BEAS-2B cells changed based on the lot of BEGM SingleQuots in the BEGM media. The cell growth rate was determined for each lot of SingleQuots. Ideally, cells were thawed into media with the new lot of SingleQuots and grown for two passages before testing; however, growing an active culture in the new lot of media for two to three passages before testing was also acceptable. Until the cell growth rate was determined, cells were seeded at different densities (cells/cm^2) in multiple tissue culture flasks in order to avoid the cells becoming more than 70% confluent. Cells should not go above 70% confluent as the cells differentiate when they become confluent. After the cells were grown in the new lot of media as described above, the number of cells per well needed to seed in the collagen plates was determined by seeding different numbers of cells per well and incubating for 48 hours. Cell confluency was checked after 48 hours and a cell number that results in just below to just above confluency was chosen for future plate seeding. Cell confluency in the assay plate was 95-100% confluent after 48 hours.
(§2) Cell media consists of BEBM basal media with the BEGM SingleQuots added. SingleQuots vials were thawed in the tissue culture hood, and GA-1000 (Gentamicin-Amphotericin) was not added.
(§3) If complete media was to be used immediately, BEBM basal media was warmed to room temperature in the hood, but not as high as 37° C. When the media was made for future use, SingleQuots were added to cold BEBM. One at a time, the SingleQuots components (except GA-1000) were added to the BEBM media. After removal of each component from the vial, the vial was rinsed with 0.5-1 mL of BEBM (depending on the volume the vial could hold) and added to the bottle of BEBM. Once all components were added, the label that comes with the SingleQuots kit was put on the bottle of media and the date was recorded. The bottle of media was mixed by gentle shaking. The media was not filtered. This media was stored at 4° C., with any leftover media disposed of one month after the date the SingleQuots were added.
(§4) BEAS-2B Cell Splitting Protocol:
(§5) First, Trypsin was warmed to 37° C. in the water bath. The media was then warmed to room temperature by letting it sit in the tissue culture hood, but not as high as 37° C. The media was aspirated from flask(s) and the flask(s) were washed with PBS. From 1 to 1.5 mL of warm trypsin were added to each flask and incubated at 37° C. until cells came off the flask on their own (~8-10 minutes), with no vigorous tapping on the flask to detach the cells.
(§6) Media was added to each flask to a total volume of 8-10 mL per flask and transferred to 15 mL conical tube(s). The cells were spun down at 120 g for 5 minutes, level 5 brake. The cells can be spun down between 100 and 150 g. Next the media was aspirated and the cell pellet was resuspended in fresh media by pipetting up and down and flicking the tube side to side. Any clumps of cells that remained were allowed to settle to the bottom of the tube before the top suspension was transferred into another tube, leaving about 1 mL of media in the original tube. The 1 mL of media and cell clumps were mixed with a single channel p1000 pipette, and any remaining clumps were removed before adding the cells in suspension to the other tube. The suspension was mixed with a pipette, an aliquot was removed, and the cells were counted. The amount of cells/cm^2 desired was calculated and the required volume of cells was added to tissue culture flasks. For example, use of SingleQuots with ~6000 cells/cm^2 was appropriate for a three day incubation and ~3000 cells/cm^2 for a five day incubation. Optimal cell density differed depending on lot of SingleQuots. The flasks were incubated at 37° C. in 5% CO2.
(§7) Day One: Seeding BEAS-2B Cells in Collagen Plates:
(§8) Plate(s) were either seeded with 0.3% or 0% HSA. While the protocol was similar for both conditions any differences are noted herein below. […]

[2] = target: HIS-Keap1 full length / Biotin-Nrf2 (16-mer) (Homo sapiens, UniProt Q14145); test: biochemical
[3] = test system: NQO1 activation in BEAS-2B cells; test: BEAS-2B cellular MTT assay of NQO1 activation, 0% HSA; assay type: cell-based
Protocol: as §1, §2, §3, §4, §5, §6, §7, §8

[4] = Homo sapiens, BEAS+, read-out: BEAS+ EC50
[5] = Homo sapiens, serum free, read-out: BEAS EC50 (nM) serum free
[6] = serum free, read-out: BEAS EC50 (nM) serum free
[7] = BEAS+ W, read-out: BEAS+ W EC50
[8] = Homo sapiens, BEAS+ W, read-out: BEAS+ W EC50

HIS-Keap1 full length / Biotin-Nrf2 (16-mer), sequence (Q14145 whole entry): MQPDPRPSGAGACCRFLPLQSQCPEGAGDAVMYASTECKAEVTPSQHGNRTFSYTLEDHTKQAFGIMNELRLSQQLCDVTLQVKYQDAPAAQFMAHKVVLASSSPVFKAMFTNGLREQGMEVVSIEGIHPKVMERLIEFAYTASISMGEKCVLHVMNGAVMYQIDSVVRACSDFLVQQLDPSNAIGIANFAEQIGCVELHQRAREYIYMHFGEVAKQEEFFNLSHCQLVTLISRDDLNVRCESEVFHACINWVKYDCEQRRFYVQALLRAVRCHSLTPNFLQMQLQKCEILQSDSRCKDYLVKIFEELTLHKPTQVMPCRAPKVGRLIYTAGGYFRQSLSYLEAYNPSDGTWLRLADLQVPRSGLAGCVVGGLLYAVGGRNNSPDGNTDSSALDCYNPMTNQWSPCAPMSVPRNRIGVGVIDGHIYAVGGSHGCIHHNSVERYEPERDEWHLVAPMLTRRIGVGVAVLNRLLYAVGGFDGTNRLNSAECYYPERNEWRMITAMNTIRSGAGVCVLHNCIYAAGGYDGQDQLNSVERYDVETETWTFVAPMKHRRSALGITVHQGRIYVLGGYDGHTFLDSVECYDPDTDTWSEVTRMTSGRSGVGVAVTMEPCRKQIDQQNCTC

SMILES	EC50 [1, 4] [µM]	IC50 [2]	EC50 [3, 5] [nM]	also measured
O=C(O)CC1c2cnc(nc2)OCCCCc2ccc(cc2Cl)C(=O)N2CCc3ccc1cc3C2 (stereo not shown) [Compound 221]	> 10	0.216 µM		
O=C(O)CC1c2cnc(nc2)OCCCCCc2ccc(c(Cl)c2)C(=O)N2CCc3ccc1cc3C2 (stereo not shown) [Compound 229]		0.0104 µM	1430	EC50 [3, 6]: 2230 nM
O=C(O)CC1c2cnc(nc2)OCCCCc2cc(F)c(c(F)c2)C(=O)N2CCc3ccc1cc3C2 (stereo not shown) [Compound 242]	> 10	> 1 µM		
O=C(O)CC1c2cnc(nc2)OCCCCCc2cc(F)c(c(F)c2)C(=O)N2CCc3ccc1cc3C2 (stereo not shown) [Compound 246]	0.992	0.0053 µM		EC50 ([1]; BEAS+, read-out: BEAS+ EC50): 1.49 µM
O=C(O)CC1c2ccc3c(c2)CN(CC3)C(=O)c2ccc(cc2F)OCCCCCCn2nnc3c(Cl)c1ccc32 (stereo not shown) [Compound 250]		0.002 µM and 0.0019 µM	16.4	EC50 [3, 6]: 16.5 nM
O=C(O)CC1c2ccc3c(c2)CN(CC3)C(=O)c2ccc(cc2C(F)(F)F)OCCCCCCn2nnc3cc1ccc32 (stereo not shown) [Compound 308]		< 0.0001 µM	910	
Cc1c2ccc(c1C)C(=O)N1CCc3ccc(cc3C1)C(CC(=O)O)c1ccc3c(nnn3CCCCCCO2)c1C (stereo not shown) [Compound 309]		< 0.0001 µM	3.2	
Cc1c2ccc3c1nnn3CCCCCC(F)(F)Oc1ccc(cc1)C(=O)N1CCc3ccc(cc3C1)C2CC(=O)O (stereo not shown) [Compound 311]		0.0001 µM and < 0.0001 µM	10.4	
Cc1c2ccc(c1C)C(=O)N1CCc3ccc(cc3C1)C(CC(=O)O)c1ccc3c(c1)nnn3CCCCCCO2 (stereo not shown) [Compound 312]		< 0.0001 µM	40.7	
Cc1c2ccc3c1nnn3CCCCCCCc1ccc(cc1)C(=O)N1CCc3ccc(cc3C1)C2CC(=O)O (stereo not shown) [Compound 313]		< 0.0001 µM and 0.0004 µM	8.8	
Cc1cc2ccc1C(=O)N1CCc3ccc(cc3C1)[C@H](CC(=O)O)c1ccc3c(c1)nnn3CCCCCCO2 [Compound 326]	0.804	0.0027 µM and 0.0008 µM		
O=C(O)CC1c2ccc3c(c2)CN(CC3)C(=O)c2ccc(cn2)OCCCCCCn2nnc3cc1ccc32 (stereo not shown) [Compound 328]		0.0009 µM and < 0.0001 µM	6710	
COC(=O)CC1c2ccc3c(c2)CN(CC3)C(=O)c2ccc(cc2C)OCCCCCn2nnc3cc1ccc32 (stereo not shown) [Compound 333]	> 10	1.82 µM and > 1 µM and 1.22 µM		
Cc1c2ccc3c1nnn3CCOCCCc1ccc(c(F)c1)C(=O)N1CCc3ccc(cc3C1)[C@H]2CC(=O)O [Compound 363]		0.009 µM and 0.0085 µM		EC50 [1, 7]: 0.711 µM; EC50 [1, 8]: 0.682 µM
Cc1c2ccc3c1nnn3CCCOCCOc1cc(F)c(c(F)c1)C(=O)N1CCc3ccc(cc3C1)C2CC(=O)O (stereo not shown) [Compound 368, 2-(20,32-difluoro-34-methyl-22-oxo-14,17-dioxa-8,9,10,23-tetrazahexacyclo[21.5.3.218,21.13,7.06,10.026,30]tetratriaconta-1(29),3(34),4,6,8,18(33),19,21(32),26(30),27-decaen-2-yl)acetic Acid]	0.114	0.0001 µM and 0.0002 µM		EC50 ([1]; BEAS+, read-out: BEAS+ EC50): 0.14 µM
Cc1cc2ccc1C(=O)N1CCc3ccc(cc3C1)C(CC(=O)O)c1ccc3c(nnn3CCCOCCO2)c1C (stereo not shown) [Compound 374]		0.001 µM		EC50 [1, 7]: 0.297 µM; EC50 [1, 8]: 0.284 µM
Cc1c2ccc3c1nnn3C/C=C/CCCc1ccc(c(F)c1)C(=O)N1CCc3ccc(cc3C1)C2C(C)C(=O)O (stereo not shown) [Compound 375]		0.0014 µM		EC50 ([3]; Homo sapiens, Serum Free W, read-out: BEAS EC50 (nM) Serum Free W): 2.9 nM
Cc1c2ccc3c1nnn3CCCCc1ccc3ccc(cc3c1)C(=O)N1CCc3ccc(cc3C1)C2CC(=O)O (stereo not shown) [Compound 390]	3.35	0.0051 µM and 0.0056 µM		EC50 ([1]; BEAS+, read-out: BEAS+ EC50): 5.77 µM
Cc1c2ccc3c1nnn3CCC/C=C/COc1cnc(nc1)C(=O)N1CCc3ccc(cc3C1)C2CC(=O)O (stereo not shown) [Compound 400]	0.0316	0.002 µM		EC50 ([1]; BEAS+, read-out: BEAS+ EC50): 0.0293 µM
